Source: ChEMBL document CHEMBL2150977, “Synthesis of highly water-soluble fibrate derivatives via BGLation” (Bioorg Med Chem Lett, 2012)
Activity calls are given as the source filed them. The calls are words filed in the database; no cut-off is given here.

How the values were obtained:
Rattus norvegicus [1] = test: Toxicity in Sprague-Dawley rat assessed as aberrant behaviour at […], po relative to vehicle-treated control; format: organism-based; conditions: in vivo
Rattus norvegicus [2] = test: Antihyperlipidemic activity in Sprague-Dawley rat assessed as decrease in plasma triglyceride level at […], po administered QD for 8 days relative to vehicle-treated control; format: functional, organism-based
Rattus norvegicus [3] = test: Toxicity in Sprague-Dawley rat assessed as body weight loss at […], po relative to vehicle-treated control; format: organism-based; conditions: in vivo
Rattus norvegicus [4] = test: Drug metabolism in Sprague-Dawley rat assessed as fenofibric acid level in plasma at 100 mg/kg, po after 4 hrs; format: ADME, organism-based; set-up: dose 100 mg/kg, route oral; conditions: in vivo
[5] = Aqueous solubility of the compound; format: physicochemical; conditions: water
Rattus norvegicus [6] = test: Drug metabolism in Sprague-Dawley rat assessed as fenofibric acid level in plasma at 150 mg/kg, po after 4 hrs; format: ADME, organism-based; set-up: dose 150 mg/kg, route oral; conditions: in vivo

Drug metabolism (Rattus norvegicus [4]) | solubility [5] | Drug metabolism (Rattus norvegicus [6]) | Structure (SMILES) | Activity (Rattus norvegicus [1]) | Activity (Rattus norvegicus [2]) | Activity (Rattus norvegicus [3])
Active | – | – | CC(C)OC(=O)C(C)(C)Oc1ccc(C(=O)c2ccc(Cl)cc2)cc1 [FENOFIBRATE] | – | Active | –
– | > 1000 µg/mL | – | CC(C)(Oc1ccc(Cl)cc1)C(=O)OC(COC(CO)CO)COC(CO)CO | – | – | –
– | > 1000 µg/mL | Active | CC(C)(Oc1ccc(C(=O)c2ccc(Cl)cc2)cc1)C(=O)OC(COC(CO)CO)COC(CO)CO | Non-toxic | Active | Non-toxic

Continued, molecule first:

Structure (SMILES) | Drug metabolism (Rattus norvegicus [4]) | solubility [5] | Drug metabolism (Rattus norvegicus [6]) | Activity (Rattus norvegicus [1]) | Activity (Rattus norvegicus [2]) | Activity (Rattus norvegicus [3])
CC(C)(Oc1ccc(C(=O)c2ccc(Cl)cc2)cc1)C(=O)OC(CO)CO | – | – | – | Non-toxic | Active | Non-toxic
CC(C)(Oc1ccc(C(=O)c2ccc(Cl)cc2)cc1)C(=O)OCCO | – | – | – | Non-toxic | Active | Non-toxic
CC(C)(Oc1ccc(CCNC(=O)c2ccc(Cl)cc2)cc1)C(=O)OC(COC(CO)CO)COC(CO)CO | – | > 1000 µg/mL | – | – | – | –
